Assay results taken from publication PMC9036094, “Antigen-derived peptides engage the ER stress sensor IRE1α to curb dendritic cell cross-presentation” (The Journal of Cell Biology, 2022).
Each block holds one molecule with its values, some of them ahead of it. Peptide text beside a SMILES is read from it. * marks the point of attachment. Cbz = O=C(OCc1ccccc1)*

Assays:
[1] = test system: IRE1α in MyD88 KO Flt3L-derived BMDCs; assay: IRE1α activation in MyD88 KO Flt3L-derived BMDCs (immunoblot); assay type: cell-based, mouse; details: ovalbumin 500 μg/ml or LPS 10 μg/ml, 4 h
Procedure: (§1) Figure S1. Antigen pulsing of BMDCs activates IRE1α. (A) BMDCs were treated with MG132 (5 μM) or ovalbumin (500 μg/ml) for indicated time points and analyzed by IB. (B) BMDCs were pulsed with ovalbumin (500 μg/ml) and G9668 (3 μM) for indicated time periods and analyzed by IB. (C) Molecular structure, potency, and kinase selectivity of G9668. (D) Schematic representation of G9668 interaction with 220 kinases at 1 μM. Size and color of circles represent interaction strength. Analysis was conducted by KinomeScan. (E) BMDCs were pulsed for 4 h with APC-tagged ovalbumin or soluble CD4-Fc protein (500 μg/ml) with amiloride (10 μM); uptake of protein was assayed by flow cytometry (n = 3). (F) WT or MyD88 KO Flt3L-derived BMDCs were pulsed with ovalbumin (500 μg/ml) or soluble CD4-Fc protein (500 μg/ml), or treated with LPS (10 μg/ml) for 4 h and analyzed by IB. (G) MEFs and BMDCs were pulsed with ovalbumin or treated with Tg (100 nM) for 4 h and analyzed by IB. Images in A, B, F, and G represent at least two similar experiments, and molecular weights represent kD; E bar graphs represent mean ± SD from three independent biological repeats. Analysis for E was performed using unpaired, two-tailed t test; *, P ≤ 0.05; **, P ≤ 0.01. Source data are available for this figure: SourceData FS1. […]

[2] = test system: IRE1α (XBP1s, pIRE1α) in BMDCs; assay: IRE1α activation in BMDCs (immunoblot); assay type: cell-based, mouse; details: in words; for IRE1α activation: GM-CSF + IL-4 BMDCs, immunoblot for XBP1s/pIRE1α
Procedure: Figure 1. Antigen pulsing of BMDCs activates IRE1α. (A) BMDCs were pulsed with ovalbumin (starting at 62.5 μg/ml and sequentially doubled) and analyzed by immunoblot (IB) for the indicated markers. (B) BMDCs were pulsed with ovalbumin (starting at 500 μg/ml and sequentially halved) or […] (1 μM), or stimulated with tunicamycin (1 μg/ml) or poly-I:C (25 μg/ml) for 4 h, and analyzed by IB. (C) BMDCs were pulsed with ovalbumin (500 μg/ml) for indicated time points and analyzed by IB. (D) BMDCs were pulsed for 4 h with ovalbumin or lysates derived from the indicated cell lines (500 μg/ml protein) and analyzed by IB. […] (F) Upon removal from bone marrow, total bone marrow cells were transfected with non-targeting control (NTC) or TAP1-targeting gRNAs, along with CRISPR/Cas9 delivery constructs. Cells were then subjected to standard BMDC-differentiation protocol, pulsed with ovalbumin (500 μg/ml) for 4 h, and analyzed by IB. All IB images are representative of at least two similar experiments, and molecular weights represent kD. Source data are available for this figure: SourceData F1.
For purification and differentiation of BMDCs, the femur and tibia bones of C57BL/6 mice were flushed with sterile PBS, and bone marrow cells were then cultured in RPMI1640 media as described above and further supplemented with […] β2-mercaptoethanol (Sigma-Aldrich), 20 ng/ml GM-CSF (BioLegend), and 10 ng/ml IL-4 (BioLegend) for 9 d, with media being replenished every 3 d. Where indicated, Flt3L-BMDCs were similarly generated using media supplemented with 200 ng/ml recombinant mouse Flt3L (PeproTech; [Brasel et al., 2000]). After 9 d of culture, BMDCs were routinely verified to be >90% CD11c^+ MHC-II^high by flow cytometry analysis.
Thapsigargin (Sigma-Aldrich) was used at 100 nM, tunicamycin (Sigma-Aldrich) was used at 5 μg/ml, MG132 (Sigma-Aldrich) was used at 5 μM, Amiloride (Sigma-Aldrich) was used at 10 μM, actinomycin D (Sigma-Aldrich) was used at 4 μg/ml, LPS (Sigma-Aldrich) was used at 10 μg/ml, and poly-I:C (Sigma-Aldrich) was used at 25 μg/ml. Ovalbumin (Sigma-Aldrich), EF-OVA (EndoFit; InvivoGen), […] peptide (Sigma-Aldrich), and human CD4-Fc fusion protein (generated in-house at Genentech) were dissolved in PBS prior to pulsing and used at indicated concentrations.
Cells were lysed in PBS solution supplemented with 1X radioimmunoprecipitation assay buffer (Millipore) and 2X Halt protease-phosphatase inhibitor cocktail (Thermo Fisher Scientific). Upon clearance, samples were analyzed by SDS-PAGE, electrotransferred to nitrocellulose membranes (Invitrogen), and blocked by 5% powdered milk in PBSt (PBS supplemented with 0.1% tween) solution. Development was conducted with ECL reagent (Thermo Fisher Scientific) and imaging was performed with the ChemiDoc ZRS+ imager (Bio-Rad). Antibodies used for Western blot analysis include IRE1α (3294, rabbit; Cell Signaling Technology), β-actin (5125, rabbit; Cell Signaling), GAPDH (97166, mouse; Cell Signaling), ATF6 (66563-1-Ig, mouse; ProteinTech), TAP1 (12341, rabbit; Cell Signaling), CHOP (2895, mouse; Cell Signaling), ATF4 (11815, rabbit; Cell Signaling), ovalbumin (P1-196, rabbit; Thermo Fisher Scientific), human Fc (ab977225, rabbit; Abcam), Myc tag (2272, rabbit; Cell Signaling), and biotin (5597, rabbit; Cell Signaling). IRE1α lumenal domain (mouse), XBP1s (rabbit), and pIRE1α (rabbit) antibodies were generated at Genentech. Secondary antibodies used were for mouse (715-035-150; The Jackson Laboratory) and rabbit (711-035-152; The Jackson Laboratory).

[3] = test system: PERK (ATF4, CHOP) in BMDCs; assay: PERK activation in BMDCs (immunoblot of ATF4 and CHOP); assay type: cell-based, mouse; details: MG132 5 μM or ovalbumin 500 μg/ml, in words
Procedure: as §1

ATF6 in BMDCs = assay: ATF6 activation in BMDCs (immunoblot, proteolytic processing); assay type: cell-based, mouse; details: MG132 5 μM or ovalbumin 500 μg/ml, in words
Procedure: as §1

heat-denatured ovalbumin = heat-denatured ovalbumin (UniProt P01012); assay: ELISA; native or heat-denatured ovalbumin coated on a 96-well plate, blocked with 1% BSA; IRE1α LD-Fc (10 μg/ml) in PBS with 20 mM Hepes, 100 mM KOAc, 0.2% tween-20, 2 h, room temperature; detection with HRP-conjugated anti-human Fc antibody
IRE1α LD-Fc [4] = assay: Plate-based ovalbumin binding to IRE1α LD-Fc; parameters: species or system human; details: 2 h, room temperature
Procedure: (§2) For experiments testing ovalbumin binding, a human LD-Fc was used at indicated concentrations. LD-Fc is comprised of amino acids M1-D443 of IRE1α fused C-terminally to a linker ([…]) followed by the human IgG1 hinge and Fc portion. Ovalbumin (Sigma-Aldrich) was dissolved in sterile PBS and used in native state or denatured as indicated by incubation at 95°C buffer for 10 min.
For plate-based binding experiments, native or heat-denatured ovalbumin at indicated concentrations was bound to a flat-bottom 96-well plate (Corning Inc.) with coating buffer (BioLegend), washed with PBSt, blocked with 1% BSA in PBS, and subsequently incubated with IRE1α LD-Fc (10 μg/ml) in binding buffer composed of PBS with 20 mM Hepes, 100 mM KOAc, and 0.2% tween-20 for 2 h at room temperature. Plates were washed again with PBSt and incubated with an anti-human Fc HRP-conjugated antibody (ab977225; Abcam). Development was performed with 3,3′,5,5′-Tetramethylbenzidine solution and terminated with Stop solution (BioLegend). Readings were taken with a SpectraMax M2 spectrometer (Molecular Devices).

IRE1α LD-Fc [5] = assay: Co-immunoprecipitation of ovalbumin with IRE1α LD-Fc; assay type: binding, human; details: LD-Fc 10 μg/ml, 2 h; ovalbumin 1-300 μg/ml; in words
Procedure: as §2
For co-immunoprecipitation experiments, IRE1α LD-Fc (10 μg/ml) and ovalbumin (indicated concentrations) were co-incubated in binding buffer (as described above) for 2 h and then immunoprecipitated with anti-IRE1α LD antibody (made in-house at Genentech), conjugated to sepharose beads, overnight at 4°C. Beads were subsequently washed four times with lysis buffer and boiled in SDS sample buffer for 10 min. Samples were then analyzed by SDS-PAGE followed by immunoblot.

Molecule: lipopolysaccharide [LPS, reference compound]
IRE1α activation, MyD88 KO BMDCs [1]: failed to activate IRE1α

Molecule: N=C(N)NC(=O)c1nc(Cl)c(N)nc1N [amiloride, reference compound]
block of antigen-induced IRE1α activation ([2]; BMDCs pulsed with antigen 500 μg/ml, G9668 3 μM or amiloride 10 μM): blocked antigen-induced IRE1α stimulation in BMDCs

Molecule: tunicamycin [reference compound]
IRE1α activation [2]: potent pharmacological ER-stressor

Molecule: SIINFEKL [ovalbumin-derived octapeptide, reference compound]
IRE1α activation [2]: little effect on IRE1α activity

Molecule: CC(C)C[C@@H](C=O)NC(=O)[C@H](CC(C)C)NC(=O)[C@H](CC(C)C)NC(=O)OCc1ccccc1 [MG132, reference compound] (Cbz-Leu-Leu-Leu-aldehyde)
IRE1α activation [2]: robust activation
PERK activation [3]: robust activation
ATF6 activation (ATF6 in BMDCs): robust activation

Molecule: polyinosinic:polycytidylic acid [poly-I:C, reference compound]
IRE1α activation [2]: much weaker IRE1α activation than did the potent pharmacological ER-stressor tunicamycin

Kd (heat-denatured ovalbumin): 300 µM
Molecule: IRE1α lumenal domain fused to an Fc tag (IRE1α LD-Fc) (from UniProt O75460 19-443) (Fc fusion)

binding to immobilized IRE1α LD-Fc (IRE1α LD-Fc [4]; LD-Fc 10 μg/ml, in words): specific and saturable binding
Kd (IRE1α LD-Fc [4]; plate-based, IRE1α LD-Fc 10 μg/ml, estimated, read-out: equilibrium dissociation constant (Kd)): ~300 µM
B1: heat-denatured ovalbumin: ovalbumin denatured by incubation at 95°C for 10 min (protein)
chain: MGSIGAASMEFCFDVFKELKVHHANENIFYCPIAIMSALAMVYLGAKDSTRTQINKVVRFDKLPGFGDSIEAQCGTSVNVHSSLRDILNQITKPNDVYSFSLASRLYAEERYPILPEYLQCVKELYRGGLEPINFQTAADQARELINSWVESQTNGIIRNVLQPSSVDSQTAMVLVNAIVFKGLWEKAFKDEDTQAMPFRVTEQESKPVQMMYQIGLFRVASMASEKMKILELPFASGTMSMLVLLPDEVSGLEQLESIINFEKLTEWTSSNVMEERKIKVYLPRMKMEEKYNLTSVLMAMGITDVFSSSANLSGISSAESLKISQAVHAAHAEINEAGREVVGSAEAGVDAASVSEEFRADHPFLFCIKHIATNAVLFFGRCVSP
co-immunoprecipitation with IRE1α LD-Fc (IRE1α LD-Fc [5]): concentration-dependent association
